Laboratory results published in patent publication US7863280B2, “Substituted 2-pyridone derivatives, method for their preparation and their use as medicament” (Sanofi-Aventis Deutschland GmbH, priority 2004, dated 2011).

Biological target: recombinantly expressed human PARP-1 enzyme (Homo sapiens, UniProt P09874)
Test: PARP enzyme assay
Assay type: biochemical
Conditions: DNA-activated PARP-1, 200 μM NAD, tritium-labeled NAD incorporation, pH=8.0, room temperature, 1 hour
Protocol: Pharmacological Investigations PARP Enzyme Assay
The half-maximum inhibitor concentration is determined by incubating the substances to be tested with the DNA-activated, recombinantly expressed and purified PARP-1 enzyme. Specifically, various concentrations of the test substance are incubated in 50 μl of reaction solution, which contains 50 mM Tris, 5 mM MgCl2, 1 mM DTT, 200 μM NAD, 0.1 mCi/ml tritium-labeled NAD, 0.1 mg/ml DNA, 0.1 mg/ml histones, 2 μg/ml recombinantly expressed human PARP-1 enzyme, pH=8.0, at room temperature for 1 hour. The reaction is stopped by adding 150 μl of 20% trichloroacetic acid, and the radiolabelled protein constituents are precipitated. After incubation on ice for 10 minutes, the labeled, insoluble constituents are separated off through a glass fiber filter and, after washing with 20% trichloroacetic acid three times, the radioactivity incorporated by the PARP-1 enzyme is measured by radioluminescence. Consideration of the incorporation rates determined in this way as a function of the concentration of the test substance results in the half-maximum inhibitor concentration (IC50) as the concentration of the test substance which reduces the incorporation rate to half the maximum value attainable (incubation without inhibitor).

Chain of recombinantly expressed human PARP-1 enzyme (P09874 whole entry): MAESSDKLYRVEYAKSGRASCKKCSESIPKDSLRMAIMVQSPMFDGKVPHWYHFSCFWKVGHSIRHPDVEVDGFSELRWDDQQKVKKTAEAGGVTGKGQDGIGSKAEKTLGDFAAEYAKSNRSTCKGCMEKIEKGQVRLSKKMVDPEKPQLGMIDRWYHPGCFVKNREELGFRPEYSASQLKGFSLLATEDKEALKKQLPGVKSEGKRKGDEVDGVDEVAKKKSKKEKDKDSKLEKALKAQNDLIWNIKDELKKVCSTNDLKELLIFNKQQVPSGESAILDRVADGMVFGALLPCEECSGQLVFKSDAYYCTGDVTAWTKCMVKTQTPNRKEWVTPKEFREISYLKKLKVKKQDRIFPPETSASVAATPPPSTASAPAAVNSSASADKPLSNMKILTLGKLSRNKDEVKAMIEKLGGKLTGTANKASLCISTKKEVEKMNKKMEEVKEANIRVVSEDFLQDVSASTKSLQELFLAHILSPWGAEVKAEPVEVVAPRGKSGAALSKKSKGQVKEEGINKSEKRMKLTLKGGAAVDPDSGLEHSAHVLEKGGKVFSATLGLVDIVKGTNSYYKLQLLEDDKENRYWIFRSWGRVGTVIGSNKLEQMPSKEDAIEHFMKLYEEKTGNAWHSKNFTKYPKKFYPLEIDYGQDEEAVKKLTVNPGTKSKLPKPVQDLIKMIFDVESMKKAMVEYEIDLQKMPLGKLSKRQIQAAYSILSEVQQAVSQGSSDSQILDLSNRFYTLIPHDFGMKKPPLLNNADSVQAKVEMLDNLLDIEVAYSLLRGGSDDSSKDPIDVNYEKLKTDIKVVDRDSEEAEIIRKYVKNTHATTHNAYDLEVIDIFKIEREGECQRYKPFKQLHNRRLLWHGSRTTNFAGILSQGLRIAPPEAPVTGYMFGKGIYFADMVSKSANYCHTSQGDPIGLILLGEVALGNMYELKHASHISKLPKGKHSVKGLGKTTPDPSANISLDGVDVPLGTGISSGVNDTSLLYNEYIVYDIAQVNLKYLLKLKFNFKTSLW

IC50 [µM]	SMILES
2.2	CCc1cc(Nc2cccc(C(N)=O)c2)c(C)[nH]c1=O [Example 2, 3-(5-ethyl-2-methyl-6-oxo-1,6-dihydropyridin-3-ylamino)benzamide]
1.3	CCc1cc(Nc2cccc(C(C)=O)c2)c(C)[nH]c1=O [Example 3, 5-(3-acetylphenylamino)-3-ethyl-6-methyl-1H-pyridin-2-one]
0.8	CCc1cc(Nc2cccc(NC(C)=O)c2)c(C)[nH]c1=O [Example 4, N-[3-(5-ethyl-2-methyl-6-oxo-1,6-dihydropyridin-3-ylamino)phenyl]acetamide]
9.8	CCc1cc(Nc2ccc(S(N)(=O)=O)cc2)c(C)[nH]c1=O [Example 6, 4-(5-ethyl-2-methyl-6-oxo-1,6-dihydropyridin-3-ylamino)benzenesulfonamide]
1.1	CCc1cc(Nc2ccc(NC(C)=O)cn2)c(C)[nH]c1=O [Example 12, N-[6-(5-ethyl-2-methyl-6-oxo-1,6-dihydropyridin-3-ylamino)pyridin-3-yl]-acetamide]
9.5	CCc1cc(Nc2ccncc2)c(C)[nH]c1=O [Example 15, 3-ethyl-6-methyl-5-(pyridin-4-ylamino)-1H-pyridin-2-one]
4.4	CCc1cc(Nc2ccc(C(C)=O)cc2)c(C)[nH]c1=O [Example 18, 5-(4-acetylphenylamino)-3-ethyl-6-methyl-1H-pyridin-2-one]

Second part, the molecule before the results:

SMILES	IC50 [µM]
CCc1cc(Nc2cccc(C#N)c2)c(C)[nH]c1=O [Example 1, 3-(5-ethyl-2-methyl-6-oxo-1,6-dihydropyridin-3-ylamino)benzonitrile]	9
CCc1cc(Nc2ccc(Oc3cccnc3)cc2)c(C)[nH]c1=O [Example 7, 3-ethyl-6-methyl-5-[4-(pyridin-3-yloxy)phenylamino]-1H-pyridin-2-one]	4.7
CCc1cc(Nc2ccc3c(c2)N(C(C)=O)CC3)c(C)[nH]c1=O [Example 9, 5-(1-acetyl-2,3-dihydro-1H-indol-6-ylamino)-3-ethyl-6-methyl-1H-pyridin-2-one]	3.4
CCc1cc(Nc2ccc(S(=O)(=O)Nc3ccccn3)cc2)c(C)[nH]c1=O [Example 10, 4-(5-ethyl-2-methyl-6-oxo-1,6-dihydropyridin-3-ylamino)-N-pyridin-2-yl-benzenesulfonamide]	6.2
CCc1cc(Nc2ccc(C#N)cn2)c(C)[nH]c1=O [Example 13, 6-(5-ethyl-2-methyl-6-oxo-1,6-dihydropyridin-3-ylamino)nicotinonitrile]	3.9
CCc1cc(Nc2cccnc2)c(C)[nH]c1=O [Example 19, 3-ethyl-6-methyl-5-(pyridin-3-ylamino)-1H-pyridin-2-one]	9.2
CCc1cc(Oc2cccc(OC)c2)c(C)[nH]c1=O [Example 20, 3-ethyl-5-(3-methoxyphenoxy)-6-methyl-1H-pyridin-2-one]	4.8
CCc1cc(Nc2cccc(CO)c2)c(C)[nH]c1=O [Example 23, 3-ethyl-5-(3-hydroxymethylphenylamino)-6-methyl-1H-pyridin-2-one]	9.8
CCc1cc(Nc2cccc(S(C)(=O)=O)c2)c(C)[nH]c1=O [Example 24, 3-ethyl-5-(3-methanesulfonylphenylamino)-6-methyl-1H-pyridin-2-one]	6.1
